The source of these data is patent US7173021B2, “Synthesis of temozolomide esters as potent anticancer pro-drugs for topical and transdermal applications in treatments of cancers” (Tianjin North Pharm Sci-Tech Co., Ltd., priority 2004, dated 2007).

Molecules are shown by their SMILES. Converted amounts (≈) assume the structure as drawn.

A word on the IC50: it is the concentration that gives 50% inhibition. Low readings indicate inhibition by little substance, high ones a need for much substance.

A short description of series [1]: In vitro permeation and metabolism, Franz diffusion cell, human skin. Type of series: in vitro ADME. From the text: (§1) Jacketed Franz-type diffusion cells were used throughout the study and the barrier (12) (skin or silicone membrane) was mounted between the two chambers (14, 16) (2.8–3.4 cm^2 available surface area) with the dermal side in contact with the receiver solution (FIG. 2). The diffusion chambers (10) comprised a barrier of skin or silicone membrane (12) mounted between two chambers (14, 16). A cap (18) formed the donor compartment (14). The second receptor compartment (16) contained a receptor cell (20) with a stirring bar (22), sampling port (24) and cover (26). The stirring bar (22) was stirred by means of a magnet plate (28) having a rotating magnet. The receptor compartment comprised a water jacket (30) having a water inlet (32) and a water outlet (34).
Three types of materials were used in permeation studies. • 1. Silicone membrane (Silastic Medical Grade, 500-5, Dow Corning 0.005 in thick) was cut into circular sections (2 cm diameter) and washed with double distilled water prior to use. • 2. Full-thickness rat skin was obtained from Male Wistar rats aged 10 to 12 weeks and weighing 250 to 300 g, which were sacrificed by cervical dislocation, the abdomen shaved and the intact skin removed by dissection. Following removal of fat tissue, the skin was cut into circular pieces and used immediately. • 3. Samples of adult human epidermis were purchased from the Stephen Kirby Skin Bank (UK). The samples were from the leg, were stored at −18° C. and used within one week. Experiments
The membrane (as detailed above) was mounted on the diffusion cell (10), on which the surface area available for diffusion of each cell was about 2.8–3.4 cm^2. The cell cap (18) was placed on the membrane (12), and it was sealed with Parafilm® connecting the cell cap, membrane, and receptor cell. […] The concentration of each sample solution was determined by using HPLC. […]
As stated above, after the removal of receptor solution, the receiver compartment was refilled with an identical volume of receptor fluid. […] As a consequence, it was necessary to mathematically correct each successive sample concentrations, in the present invention, which was determined by applying the following equation:
[formula] where Ct is the actual current concentration of drug in the receptor phase at time t, Cmt is the apparent (i.e. measured) current concentration of drug in the receptor phase, Vs is the sample volume withdrawn for analysis, Vr is the volume of receptor solution, and ΣCm is the summed total of the previous measured concentrations.
Finally, the amount of drug penetrating the skin per unit area was calculated by dividing the obtained concentrations by the surface area available for diffusion cell and this value was different for each individual cell. […]

A further series deals with B16 (mouse melanoma). Description: In vitro tumour cell growth inhibition (MTT), B16. The note with it: Mus musculus, Table 2 experiment, 96 h. Format: cell-based. Here is the method:
(§2) Temozolomide (white powder), temozolomide acid (white powder) and temozolomide-8-carboxylate hexyl (white scale crystal) were made in house. For the estimation of in vitro tumour cell growth inhibition, MV3 (human melanoma), M14 (human melanoma), B16 and B16-BL6 (mouse melanoma), SHG-44, TJ899 and TJ905 (human glioma), MCF-7 (human breast), HCT-8 (human colon), A549 (human non small lung), Bel7402 (human hepatocellulor), and BGC-823 (human stomach) were used. All tumour cells were cultured in RPMI-1640 medium supplemented with 10% fetal bovine serum (FBS) at 37° C. in a humidified 5% CO2 incubator.
(§3) After being harvested from culture flasks, a cell suspension of 1×10^4/ml was made by using 1640 RPMI medium supplemented with 10% fetal bovine serum. 100 μl (contains 1000 tumour cells) of the cell suspension was seeded per well of 96-well flat-bottom Costar culture plates at 37° C. in a humidified 5% CO2 incubator for 24 hrs before introducing drugs. Each tested compounds was made for five different concentrations and 100 μl of the each concentration was introduced into parallel three wells; control wells were added with 100 μl of plain medium alone; fluorouracil (a chemotherapeutic antitumour drug) was used as the positive control. Cells were then incubated for 96 h. Proliferative response and cell death were determined using MTT (3-(4,5-dimethylthiazolyl)-2,5-diphenyl-tetrazolium bromide) assay.
(§4) MTT assay: Following incubation of cells with the tested compounds for 96 h, 100 μl of 0.4 mg/ml MTT in RPMI 1640 was added to each well and the plate was incubated at 37° C. for 4 h. The plate was then centrifuged and followed by removal of medium. 150 μl of DMSO was then added to dissolve formazan crystal. DMSO-added plates were placed on a plate shaker for 5 min and absorbance was measured spectrophotometrically at 540 nm (with reference wavelength at 450 nm) using a Benchmark microtiter plate reader (Bio-Rad 550, Bio-Rad Laboratories, CA, U.S.A.).
(§5) The IC50 was calculated from the curve of the tested compound concentrations against the inhibition rate of the tumour cells. Table 1 summarized the experiment results by using six human cancer cell lines, HCT-8 (colon carcinoma), A549 (non small lung carcinoma), MCF-7 (breast), Bel7402 (hepatocellulor carcinoma), BGC-823 (stomach adenocarcinoma), and MV3 (melanoma). Table 2 summarized the results from the experiment results by using two human melanoma cell lines, MV3 and M14, two mouse melanoma cell lines, B16 and B16-BL6, and three human glioma cell lines, TJ899, SHG-44 and TJ905.

The next series concerns B16-BL6 (mouse melanoma). Description: In vitro tumour cell growth inhibition (MTT), B16-BL6. The following applies: Mus musculus, B16-BL6, Table 2 experiment, 96 h. Format: cell-based. The protocol:
as §2, §3, §4, §5

The next series has as its system MCF-7 (human breast). Description: In vitro tumour cell growth inhibition (MTT), MCF-7. Type of series: cell-based. The following applies: MCF7, Table 1 experiment, 96 h. Here is the method:
as §2, §3, §4
(§6) The IC50 was calculated from the curve of the tested compound concentrations against the inhibition rate of the tumour cells. […]

The next series deals with SHG-44 (human glioma). The series can be described thus: In vitro tumour cell growth inhibition (MTT), SHG-44. Format: cell-based. The following applies: Homo sapiens, SHG-44, Table 2 experiment, 96 h. Here is the method: as §2, §3, §4, §5
Series [2] relates to A549 (human non small lung). Description: In vitro tumour cell growth inhibition (MTT), A549. Format: cell-based. The following applies: Table 1 experiment, 96 h. The protocol:
as §2, §3, §4, §6

Series [3] is described as follows: In vitro permeation and metabolism, Franz diffusion cell, full-thickness rat skin. Type of series: in vitro ADME. The following applies: 37° C., 8 h, FIGS. 6-8.
Description: as §1
Three types of materials were used in permeation studies. • 1. […]
The membrane (as detailed above) was mounted on the diffusion cell (10), on which the surface area available for diffusion of each cell was about 2.8–3.4 cm^2. […] The concentration of each sample solution was determined by using HPLC. […]
As stated above, after the removal of receptor solution, the receiver compartment was refilled with an identical volume of receptor fluid. […] As a consequence, it was necessary to mathematically correct each successive sample concentrations, in the present invention, which was determined by applying the following equation: […]

Turning to `CCCCCCOC(=O)c1ncn2c(=O)n(C)nnc12` [temozolomide hexyl ester, Hexyl 3,4-dihydro-3-methyl-4-oxoimidazo[5,1-d]-1,2,3,5-tetrazine-8-carboxylate], in series [1] (37° C., FIG. 9), the “Permeation through human skin” value is reported as “notably better than temozolomide”. Moreover, the “Metabolism within human skin to temozolomide acid” value in series [1] (human skin) is listed as “completely metabolized into the temozolomide acid”. Further, the IC50 is 28.3 µg/mL (≈ 101 µM) in the series on B16 (mouse melanoma); above 100 µg/mL with B16-BL6 (mouse melanoma); 20 µg/mL (≈ 71.6 µM) in the series on MCF-7 (human breast); 9.46 µg/mL (≈ 33.9 µM) with SHG-44 (human glioma); 26.6 µg/mL (≈ 95.4 µM) in series [2]. Moreover, in series [3], the “Permeation through full-thickness rat skin (cumulative amount permeated %)” value is listed as “maximum value”.
